Data published in patent US11548925B2, “CACNA1H-derived tumor antigen polypeptide and use thereof” (Genoimmune Therapeutics Co., Ltd., priority 2016, dated 2023).

Test system: CD8+ T cells
Test: ELISPOTs detection of IFN-γ secretion by peptide-specific CD8+ T cells
Format: cell-based, human
Text: In this example, a ELISPOTs detection kit (Cat. No.: 3420-4AST-10, MABTECH) was used to verify the activation of an immune response of CD8+ T cells by the peptides of the present invention.
Principle of the ELISPOTs detection method is as follows: CD8+ T cells can specifically recognize the complex of HLA-A0201 and a peptide. The population of T cells recognizing the complex of the peptide and HLA-A0201 is varying, depending on the peptide sequence. Since T2 cells express HLA-A0201, CD8+ T cells can specifically recognize the T2 cells loaded with a peptide. After specific recognition of the complex of HLA-A0201 and the peptide, peptide-specific CD8+ T cells can be activated again to secrete IFN-γ interferon. The IFN-γ interferon secreted by the activated CD8+ T cells can be captured by antibodies on the ELISPOTs plate. Finally, the enzyme-conjugated antibody that recognizes IFN-γ can degrade the substrate through the enzyme conjugated thereto and develop color, eventually producing spots. The number of spots represents the number of cells that are activated to secrete IFN-γ interferon.
The cultured cells from Example 3 were added, along with T2 cells loaded with the mutant peptide […] (SEQ ID NO: 2) of the present invention and the wild-type peptide […] (SEQ ID NO: 1), respectively, into ELISPOTs plates, and cultured for 20 h, and then a ELISPOTs detection was performed (see the kit instruction). Finally, the spots produced by the ELISPOTs detection were counted.
The peptide was determined to have immunogenicity when the number of spots of the tested peptide/the number of spots of an unrelated peptide>2; that is, if the number of spots caused by the tested peptide is more than twice than that of an unrelated peptide, the tested peptide is determined to have immunogenicity.

Sequence: TLISSLMPI [tumor antigen peptide from CACNA1H mutation, position 1428 arginine to methionine]
- Conclusion (immunogenicity) (ELISPOTs): immunogenic
- Number of spots in the mutant peptide group (T cells activated by the listed peptide, T2 cells loaded with TLISSLMPI, 20 h): 306
- Number of spots in the wild-type peptide group (T cells activated by the listed peptide, T2 cells loaded with TLISSLRPI, 20 h): 33
